US8158809B2 (priority 2003, dated 2012)

Test system: HCT116
Assay: Cell colony formation assay
Format: cell-based
Details: 10 nM; 72 hours with drug; colonies counted after 7 days
Procedure: This example provides directions for growing cells and testing compounds of the invention for their effect on the growth of the cells. All cells were purchased from DCTDC Tumor Repository, NCI, NIH.
The cells were incubated in a CO2 incubator at 37° C. for 5 hours for attachment to the bottom of Petri dishes. Drugs were made fresh in medium at ten times the final concentration, and then 0.3 ml of this stock solution was added to the 2.7 ml of medium in the dish. The cells were then incubated with drugs for 72 hours at 37° C. At the end of the incubation the drug-containing media were decanted, the dishes were rinsed with 4 ml of Hank's Balance Salt Solution (HBSS), 5 ml of fresh medium was added, and the dishes were returned to the incubator for colony formation. The cell colonies were counted using colony counter after incubation for 7 days for HCT116 cells and PC-3 cells and 8 days for VM46 cells, respectively. Cell survival (%) was calculated, as shown in Table I below for HCT 116 cells.

In the case of `COc1cc([C@@H]2c3cc4c(cc3[C@@H](O[C@@H]3O[C@@H]5CO[C@@H](C)O[C@H]5[C@H](O)[C@H]3O)[C@H]3COC(=O)[C@H]23)OCO4)cc(OC)c1O` [Etoposide, reference compound], the “In Vitro Efficacy: Survival (%) of HCT116” value was 100%.
